Results reported in ChEMBL document CHEMBL5625248, “Identification of unique indolylcyanoethylenyl sulfonylanilines as novel structural scaffolds of potential antibacterial agents” (Eur J Med Chem, 2023).
Values after ≈ are worked out from the molar mass of the structure shown.

Key:
Format in all cases: functional
[1] = test system: Enterococcus faecalis; experiment: Antibacterial activity against Enterococcus faecalis assessed as inhibition of bacterial growth incubated for 18 hrs by two fold broth microdilution assay
[2] = test system: Staphylococcus aureus; experiment: Antibacterial activity against Staphylococcus aureus ATCC 25923 assessed as inhibition of bacterial growth incubated for 18 hrs by two fold broth microdilution assay
[3] = test system: Staphylococcus aureus; experiment: Antibacterial activity against Staphylococcus aureus ATCC 29213 assessed as inhibition of bacterial growth incubated for 18 hrs by two fold broth microdilution assay
[4] = test system: Klebsiella pneumoniae; experiment: Antibacterial activity against Klebsiella pneumoniae assessed as inhibition of bacterial growth incubated for 18 hrs by two fold broth microdilution assay
[5] = test system: Acinetobacter baumannii; experiment: Antibacterial activity against Acinetobacter baumannii assessed as inhibition of bacterial growth incubated for 18 hrs by two fold broth microdilution assay
[6] = test system: Staphylococcus aureus; experiment: Antibacterial activity against methicilin-resistant Staphylococcus aureus N315 assessed as inhibition of bacterial growth incubated for 18 hrs by two fold broth microdilution assay
[7] = test system: Staphylococcus aureus; experiment: Antibacterial activity against Staphylococcus aureus assessed as inhibition of bacterial growth incubated for 18 hrs by two fold broth microdilution assay
[8] = test system: Pseudomonas aeruginosa; experiment: Antibacterial activity against Pseudomonas aeruginosa ATCC 27853 assessed as inhibition of bacterial growth incubated for 18 hrs by two fold broth microdilution assay
[9] = test system: Escherichia coli; experiment: Antibacterial activity against Escherichia coli ATCC 25922 assessed as inhibition of bacterial growth incubated for 18 hrs by two fold broth microdilution assay
[10] = test system: Pseudomonas aeruginosa; experiment: Antibacterial activity against Pseudomonas aeruginosa assessed as inhibition of bacterial growth incubated for 18 hrs by two fold broth microdilution assay
[11] = test system: Escherichia coli; experiment: Antibacterial activity against Escherichia coli assessed as inhibition of bacterial growth incubated for 18 hrs by two fold broth microdilution assay

Compound	MIC [1] [µg/mL]	MIC [2] [µg/mL]	MIC [3] [µg/mL]	MIC [4] [µg/mL]	MIC [5] [µg/mL]	MIC [6] [µg/mL]	MIC [7] [µg/mL]	MIC [8] [µg/mL]	MIC [9] [µg/mL]	MIC [10] [µg/mL]	MIC [11] [µg/mL]
N#C/C(=C\c1cn(Cc2ccc(F)cc2F)c2ccccc12)S(=O)(=O)c1ccc(N)cc1	256 (≈ 570 µM)	64 (≈ 142 µM)	8 (≈ 17.8 µM)	4 (≈ 8.9 µM)	16 (≈ 35.6 µM)	256 (≈ 570 µM)	32 (≈ 71.2 µM)	64 (≈ 142 µM)	64 (≈ 142 µM)	64 (≈ 142 µM)	256 (≈ 570 µM)
N#C/C(=C\c1cn(Cc2ccc(Cl)c(Cl)c2)c2ccccc12)S(=O)(=O)c1ccc(N)cc1	128 (≈ 265 µM)	16 (≈ 33.2 µM)	4 (≈ 8.29 µM)	4 (≈ 8.29 µM)	4 (≈ 8.29 µM)	16 (≈ 33.2 µM)	128 (≈ 265 µM)	64 (≈ 133 µM)	0.5 (≈ 1.04 µM)	31 (≈ 64.3 µM)	256 (≈ 531 µM)
CC(=O)Nc1ccc(S(=O)(=O)/C(C#N)=C/c2cn(CC3CCCC3)c3ccccc23)cc1	32 (≈ 71.5 µM)	128 (≈ 286 µM)	16 (≈ 35.7 µM)	4 (≈ 8.94 µM)	32 (≈ 71.5 µM)	128 (≈ 286 µM)	8 (≈ 17.9 µM)	16 (≈ 35.7 µM)	64 (≈ 143 µM)	64 (≈ 143 µM)	256 (≈ 572 µM)
CCOC(=O)Cn1cc(/C=C(\C#N)S(=O)(=O)c2ccc(NC(C)=O)cc2)c2ccccc21	128 (≈ 283 µM)	64 (≈ 142 µM)	16 (≈ 35.4 µM)	64 (≈ 142 µM)	128 (≈ 283 µM)	256 (≈ 567 µM)	128 (≈ 283 µM)	128 (≈ 283 µM)	256 (≈ 567 µM)	8 (≈ 17.7 µM)	32 (≈ 70.9 µM)
CC(=O)Nc1ccc(S(=O)(=O)/C(C#N)=C/c2cn(Cc3cccc(Cl)c3)c3ccccc23)cc1	256 (≈ 522 µM)	128 (≈ 261 µM)	8 (≈ 16.3 µM)	16 (≈ 32.7 µM)	64 (≈ 131 µM)	128 (≈ 261 µM)	64 (≈ 131 µM)	64 (≈ 131 µM)	4 (≈ 8.16 µM)	64 (≈ 131 µM)	128 (≈ 261 µM)
CC(=O)Nc1ccc(S(=O)(=O)/C(C#N)=C/c2c[nH]c3ccccc23)cc1	2 (≈ 5.47 µM)	8 (≈ 21.9 µM)	8 (≈ 21.9 µM)	16 (≈ 43.8 µM)	0.5 (≈ 1.37 µM)	8 (≈ 21.9 µM)	256 (≈ 701 µM)	1 (≈ 2.74 µM)	4 (≈ 10.9 µM)	32 (≈ 87.6 µM)	64 (≈ 175 µM)
CC(=O)Nc1ccc(S(=O)(=O)/C(C#N)=C/c2c[nH]c3cc(F)ccc23)cc1	32 (≈ 83.5 µM)	128 (≈ 334 µM)	32 (≈ 83.5 µM)	128 (≈ 334 µM)	16 (≈ 41.7 µM)	64 (≈ 167 µM)	32 (≈ 83.5 µM)	8 (≈ 20.9 µM)	8 (≈ 20.9 µM)	64 (≈ 167 µM)	128 (≈ 334 µM)
N#C/C(=C\c1cn(Cc2cccc(F)c2)c2ccccc12)S(=O)(=O)c1ccc(N)cc1	128 (≈ 297 µM)	64 (≈ 148 µM)	64 (≈ 148 µM)	4 (≈ 9.27 µM)	8 (≈ 18.5 µM)	256 (≈ 593 µM)	128 (≈ 297 µM)	64 (≈ 148 µM)	64 (≈ 148 µM)	64 (≈ 148 µM)	256 (≈ 593 µM)
C#CCn1cc(/C=C(\C#N)S(=O)(=O)c2ccc(N)cc2)c2ccccc21	2 (≈ 5.53 µM)	16 (≈ 44.3 µM)	2 (≈ 5.53 µM)	8 (≈ 22.1 µM)	0.5 (≈ 1.38 µM)	2 (≈ 5.53 µM)	4 (≈ 11.1 µM)	4 (≈ 11.1 µM)	256 (≈ 708 µM)	0.5 (≈ 1.38 µM)	128 (≈ 354 µM)
CC(=O)Nc1ccc(S(=O)(=O)/C(C#N)=C/c2cn(CCN3CCOCC3)c3ccccc23)cc1	256 (≈ 535 µM)	32 (≈ 66.9 µM)	32 (≈ 66.9 µM)	256 (≈ 535 µM)	32 (≈ 66.9 µM)	32 (≈ 66.9 µM)	128 (≈ 267 µM)	8 (≈ 16.7 µM)	0.5 (≈ 1.04 µM)	4 (≈ 8.36 µM)	64 (≈ 134 µM)
Cc1cccc2c(/C=C(\C#N)S(=O)(=O)c3ccc(N)cc3)c[nH]c12	256 (≈ 759 µM)	128 (≈ 379 µM)	32 (≈ 94.8 µM)	4 (≈ 11.9 µM)	4 (≈ 11.9 µM)	128 (≈ 379 µM)	256 (≈ 759 µM)	64 (≈ 190 µM)	4 (≈ 11.9 µM)	64 (≈ 190 µM)	64 (≈ 190 µM)
CC(=O)Nc1ccc(S(=O)(=O)/C(C#N)=C/c2cn(CC3CCCCC3)c3ccccc23)cc1	32 (≈ 69.3 µM)	64 (≈ 139 µM)	64 (≈ 139 µM)	128 (≈ 277 µM)	32 (≈ 69.3 µM)	64 (≈ 139 µM)	32 (≈ 69.3 µM)	2 (≈ 4.33 µM)	32 (≈ 69.3 µM)	64 (≈ 139 µM)	256 (≈ 555 µM)
CC(=O)Nc1ccc(S(=O)(=O)/C(C#N)=C/c2cn(CC3CC3)c3ccccc23)cc1	64 (≈ 153 µM)	64 (≈ 153 µM)	64 (≈ 153 µM)	64 (≈ 153 µM)	16 (≈ 38.1 µM)	32 (≈ 76.3 µM)	256 (≈ 610 µM)	64 (≈ 153 µM)	32 (≈ 76.3 µM)	32 (≈ 76.3 µM)	16 (≈ 38.1 µM)
